Test results reported in article PMC11284788, “NN1213 – A Potent, Long-Acting, and Selective Analog of Human Amylin” (Journal of Medicinal Chemistry, 2024).
Read-outs that look alike come from different tables or passages of the source. Numbered stars: 1 amine (or outer) side, 2 acyl side, 3 side chain; on linkers, the order of the positions; unused ones are H or OH. Bridge positions count the residues as written; N and C are the ends. Side chains are listed from the residue outwards. Peptide text beside a SMILES is read from it. * marks the point of attachment. C20 diacid = O=C(O)CCCCCCCCCCCCCCCCCCC(=O)*; γGlu = O=C(O)[C@H](CCC(=O)[*:2])N[*:1]

Assays:
rCTR = biological target: T1, rCTR (Rattus norvegicus, UniProt P32214); assay: scintillation proximity binding assay, rCTR membranes
T1 construct: expressed in transfected cells; host or cells: BHK tk-ts 13, transient (FuGENE 6)
T1 sequence (P32214 25-479 isoform P32214-2 limits assumed): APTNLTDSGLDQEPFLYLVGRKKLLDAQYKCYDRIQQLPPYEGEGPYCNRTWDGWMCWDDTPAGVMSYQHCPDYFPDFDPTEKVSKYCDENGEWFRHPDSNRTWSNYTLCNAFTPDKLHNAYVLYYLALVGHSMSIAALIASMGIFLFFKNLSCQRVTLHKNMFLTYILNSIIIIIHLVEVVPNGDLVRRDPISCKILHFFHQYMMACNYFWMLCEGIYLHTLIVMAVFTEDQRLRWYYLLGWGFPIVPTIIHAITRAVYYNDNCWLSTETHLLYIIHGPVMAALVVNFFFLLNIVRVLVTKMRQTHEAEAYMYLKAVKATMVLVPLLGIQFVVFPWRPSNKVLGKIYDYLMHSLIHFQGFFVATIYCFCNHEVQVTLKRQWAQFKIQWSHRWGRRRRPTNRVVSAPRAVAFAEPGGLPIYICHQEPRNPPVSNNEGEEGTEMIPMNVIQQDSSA
Experimental: (§1) The apparent binding affinities were determined using a scintillation proximity assay with beads from PerkinElmer and cell membranes containing the AMY3R or CTRs. […] Membranes were harvested and membranes were prepared and kept at −80 °C until use. The assay was performed in a 384-well Optiplate (PerkinElmer). Membranes were mixed with scintillation proximity assay beads in a 1:1 ratio. […] Samples were analyzed on a TopCounter (Packard). The IC50 values were calculated using GraphPad Prism. See Supporting Information S7: SAR Screening Assay Methods (Binding Assays (Human and Rat)) for more information.
(§2) Binding Assays (Human and Rat). Brief descriptions of the methods used to determine binding affinities for SAR analysis are described below. Curves and IC50 values were plotted and calculated in GraphPad Prism using nonlinear regression (one site binding competition analysis), with pIC50 values […]
(§3) values were used to calculate the binding affinity ratios in order to express the selectivity of compounds for the AMY3R versus the CTR.
(§4) CTR Binding Assay. The binding assay was performed using scintillation proximity assay (SPA) beads (RPNQ0001) from PerkinElmer and cell membranes containing either the hCTR or rCTR. BHK […]
(§5) Membranes were prepared in the following way: the cells were rinsed with PBS and incubated with Versene for approximately 5 min before harvesting. The cells were flushed with PBS and the cell-suspension was centrifuged for 5 min at 1000 rpm. Cells were homogenized (Ultra Turrax) in a buffer […]
(§6) containing 20 mM Na-HEPES and 0.1 mM EDTA (pH 7.4, buffer 2). The resulting pellet was re-suspended in buffer 2 and protein concentration was measured (BCA protein assay, Pierce). The homogenate was kept cold during the whole procedure. The membranes were stored at –80 °C until […]
(§7) The binding assay was performed in a 384-well Optiplate (PerkinElmer) in a total volume of 40 μL.
(§8) Membranes were mixed with SPA beads in a 1:1 ratio. […]
(§9) mg/well. Test compounds were dissolved in DMSO and further diluted in assay buffer (50 mM HEPES, pH 7.4, 1 mM CaCl2, 5 mM MgCl2, 0.1% ovalbumin, and 0.02% Tween-20).
(§10) Calcitonin (NEX422 PerkinElmer) was dissolved in assay buffer and added to the Optiplate at a final […]
(§11) prior to centrifugation (1500 rpm, 10 min). Samples were analyzed on TopCounter (Packard).

hCTR = biological target: T2, hCTR (Homo sapiens, UniProt P30988); assay: scintillation proximity binding assay, hCTR membranes; set-up: expressed in transfected cells; host or cells: BHK tk-ts 13, transient (FuGENE 6); membranes for the SPA, whole cells for the species-specific assays
T2 sequence (P30988 25-474): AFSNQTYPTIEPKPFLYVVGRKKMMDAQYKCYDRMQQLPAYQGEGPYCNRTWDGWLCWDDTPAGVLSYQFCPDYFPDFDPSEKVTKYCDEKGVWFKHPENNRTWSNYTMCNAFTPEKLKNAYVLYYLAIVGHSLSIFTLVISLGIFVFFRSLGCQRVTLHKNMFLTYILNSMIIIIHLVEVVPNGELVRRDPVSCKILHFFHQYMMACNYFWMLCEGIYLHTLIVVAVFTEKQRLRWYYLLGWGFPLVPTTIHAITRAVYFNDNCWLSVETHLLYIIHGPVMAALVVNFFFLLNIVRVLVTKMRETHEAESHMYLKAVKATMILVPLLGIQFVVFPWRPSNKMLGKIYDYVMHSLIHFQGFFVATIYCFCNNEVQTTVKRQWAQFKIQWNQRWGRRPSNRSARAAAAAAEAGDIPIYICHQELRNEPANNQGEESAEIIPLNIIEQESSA
Experimental: as §1, §2, §3, §4, §5, §6, §7, §8, §9, §10, §11

rAMY3R = biological target: T3, rAMY3R (Rattus norvegicus, UniProt P32214+Q9JJ73); assay: scintillation proximity binding assay, rAMY3R membranes; set-up: expressed in transfected cells; host or cells: BHK tk-ts 13, transient co-transfection (FuGENE 6); settings: for ratio rCTR/rAMY3R: ratio of binding IC50 values
T3 sequence (P32214 25-479 isoform P32214-2 limits assumed): T1 sequence (P32214 25-479 isoform P32214-2 limits assumed)
T3 sequence (Q9JJ73 23-147 partner): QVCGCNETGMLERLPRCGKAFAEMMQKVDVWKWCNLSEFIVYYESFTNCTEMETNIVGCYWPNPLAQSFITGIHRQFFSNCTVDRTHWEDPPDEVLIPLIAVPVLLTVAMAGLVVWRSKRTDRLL
Experimental: as §1, §2, §3, §4, §5, §6, §7, §8, §9, §10, §11
AMY3R Binding Assay. The binding assay was performed using SPA beads (RPNQ0001) from PerkinElmer and cell membranes containing either the hAMY3R or rAMY3R. BHK tk-ts 13 cells were […]
as §5, with “and cultured as described above. Membranes” for “Membranes”, “buffer containing 20 mM Na-HEPES and 10 mM EDTA (pH 7.4), and” for “buffer”
The resulting pellet was re-suspended, homogenized, and
7.4, buffer 2). The resulting pellet was re-suspended in buffer 2 and protein concentration was measured (BCA protein assay, Pierce). The homogenate was kept cold during the whole procedure.
The membranes were stored at –80 °C until use.
Membranes were mixed with SPA beads in a 1:1 ratio. The final concentration of SPA beads was 0.05 mg/well. Test compounds were dissolved in DMSO and further diluted in assay buffer (50 mM […]
rAMY (NEX448 PerkinElmer) was dissolved in assay buffer and added to the Optiplate at a final

rat AMY3R = biological target: T4, rat AMY3R (Rattus norvegicus, UniProt P32214+Q9JJ73); assay: cAMP FlashPlate assay, rat AMY3R; format: cell-based; settings: ratio of cAMP EC50 values
T4 construct: expressed in transfected cells; host or cells: BHK tk-ts 13, transient co-transfection (FuGENE 6)
T4 sequence (P32214 25-479 isoform P32214-2 limits assumed): T1 sequence (P32214 25-479 isoform P32214-2 limits assumed)
T4 sequence (Q9JJ73 23-147 partner): T3 sequence (Q9JJ73 23-147 partner)

[1] = SPA binding assay, Tables S13 and S15, read-out: rCTR pIC50 (converted)
[2] = SPA, BHK cell membranes, 125I-Calcitonin 75 pM, 120 min 25 °C, read-out: rCTR IC50
[3] = SPA binding assay, Tables S13 and S15, read-out: hCTR pIC50 (converted)
[4] = SPA, BHK cell membranes, 125I-Calcitonin 75 pM, 120 min 25 °C, read-out: hCTR IC50
[5] = SPA binding assay, Tables S13 and S15

IC50 (rCTR; [1]) [nM]	IC50 (rCTR; [2]) [nM]	IC50 (hCTR; [3]) [nM]	IC50 (hCTR; [4]) [nM]	IC50 (rAMY3R; SPA binding assay, Tables S13 and S15, read-out: rAMY3R pIC50 (converted)) [nM]	IC50 (rAMY3R; SPA, BHK cell membranes, 125I-rat amylin, 120 min 25 °C, read-out: rAMY3R IC50) [nM]	ratio rCTR/rAMY3R (rAMY3R)	rAMY3R pIC50 (rAMY3R; [5])	ratio rCTR/rAMY3R (rat AMY3R)	hCTR pIC50 (hCTR; [5])	Structure (SMILES)
355	356	74.1	74.1	4.68	4.69	76	–	–	–	CC[C@H](C)[C@H](NC(=O)[C@@H]1CCCN1C(=O)CNC(=O)[C@H](Cc1ccccc1)NC(=O)[C@H](CC(N)=O)NC(=O)[C@@H]1CCCN1C(=O)[C@H](CO)NC(=O)[C@H](CO)NC(=O)[C@H](Cc1c[nH]cn1)NC(=O)[C@H](CCCNC(=N)N)NC(=O)[C@H](CC(C)C)NC(=O)[C@H](Cc1ccccc1)NC(=O)[C@H](CC(=O)O)NC(=O)[C@H](C)NC(=O)[C@H](CC(C)C)NC(=O)[C@H](CCCNC(=N)N)NC(=O)[C@H](CCC(N)=O)NC(=O)[C@@H](NC(=O)[C@H](C)NC(=O)[C@@H]1CSSC[C@H](NC(=O)[C@@H](N)CCCCNC(=O)CC[C@H](NC(=O)CC[C@H](NC(=O)CCCCCCCCCCCCCCCCCCC(=O)O)C(=O)O)C(=O)O)C(=O)N[C@@H](CC(N)=O)C(=O)N[C@@H]([C@@H](C)O)C(=O)N[C@@H](C)C(=O)N[C@@H]([C@@H](C)O)C(=O)N1)[C@@H](C)O)C(=O)N[C@@H](CC(C)C)C(=O)N[C@@H](CO)C(=O)N[C@@H](CO)C(=O)N[C@H](C(=O)N[C@@H](CC(N)=O)C(=O)N[C@H](C(=O)NCC(=O)N[C@@H](CO)C(=O)N[C@@H](CC(=O)O)C(=O)N[C@H](C(=O)N[C@@H](Cc1ccc(O)cc1)C(N)=O)[C@@H](C)O)C(C)C)[C@@H](C)O [Peptide 3] (H-K([γGlu-γGlu-C20 diacid])CNTATCATQRLADFLRHSSPNFGPILSSTNVGSDTY-NH2; disulfide 2-7)
105	106	30.2	30.2	–	–	81	8.89	–	–	CC(C)C[C@H](NC(=O)[C@H](CCCNC(=N)N)NC(=O)[C@H](CCC(N)=O)NC(=O)[C@@H](NC(=O)[C@H](C)NC(=O)[C@@H]1CSSC[C@H](NC(=O)[C@@H](N)CCCCNC(=O)CC[C@H](NC(=O)CC[C@H](NC(=O)CCCCCCCCCCCCCCCCCCC(=O)O)C(=O)O)C(=O)O)C(=O)N[C@@H](CC(N)=O)C(=O)N[C@@H]([C@@H](C)O)C(=O)N[C@@H](C)C(=O)N[C@@H]([C@@H](C)O)C(=O)N1)[C@@H](C)O)C(=O)N[C@@H](C)C(=O)N[C@@H](CC(=O)O)C(=O)N[C@@H](Cc1ccccc1)C(=O)N[C@@H](CC(C)C)C(=O)N[C@@H](CCCNC(=N)N)C(=O)N[C@@H](Cc1c[nH]cn1)C(=O)N[C@@H](CO)C(=O)N[C@@H](CO)C(=O)N1CCC[C@H]1C(=O)N[C@@H](CC(N)=O)C(=O)N[C@@H](Cc1ccccc1)C(=O)NCC(=O)N[C@@H](C)C(=O)N1CCC[C@H]1C(=O)N[C@@H](CC(C)C)C(=O)N[C@@H](CO)C(=O)N[C@@H](CO)C(=O)N[C@H](C(=O)N[C@@H](CC(N)=O)C(=O)N[C@H](C(=O)NCC(=O)N[C@@H](CO)C(=O)N[C@@H](CC(=O)O)C(=O)N[C@H](C(=O)N[C@@H](Cc1ccc(O)cc1)C(N)=O)[C@@H](C)O)C(C)C)[C@@H](C)O [Peptide 5] (H-K([γGlu-γGlu-C20 diacid])CNTATCATQRLADFLRHSSPNFGAPLSSTNVGSDTY-NH2; disulfide 2-7)
–	–	–	19.5	–	–	447	–	1338	7.71	CC[C@H](C)[C@H](NC(=O)[C@H](C)NC(=O)CNC(=O)[C@H](Cc1ccccc1)NC(=O)[C@H](CC(N)=O)NC(=O)[C@@H]1CCCN1C(=O)[C@H](CO)NC(=O)[C@H](CO)NC(=O)[C@H](Cc1c[nH]cn1)NC(=O)[C@H](CCCNC(=N)N)NC(=O)[C@H](CC(C)C)NC(=O)[C@H](Cc1ccccc1)NC(=O)[C@H](CC(=O)O)NC(=O)[C@H](C)NC(=O)[C@H](CC(C)C)NC(=O)[C@H](CCCNC(=N)N)NC(=O)[C@H](CCC(N)=O)NC(=O)[C@@H](NC(=O)[C@H](C)NC(=O)[C@@H]1CSSC[C@H](NC(=O)[C@@H](N)CCCCNC(=O)CC[C@H](NC(=O)CC[C@H](NC(=O)CCCCCCCCCCCCCCCCCCC(=O)O)C(=O)O)C(=O)O)C(=O)N[C@@H](CC(N)=O)C(=O)N[C@@H]([C@@H](C)O)C(=O)N[C@@H](C)C(=O)N[C@@H]([C@@H](C)O)C(=O)N1)[C@@H](C)O)C(=O)N1CCC[C@H]1C(=O)N[C@@H](CO)C(=O)N[C@@H](CO)C(=O)N[C@H](C(=O)N[C@@H](CC(N)=O)C(=O)N[C@H](C(=O)NCC(=O)N[C@@H](CO)C(=O)N[C@@H](CC(=O)O)C(=O)N[C@H](C(=O)N[C@@H](Cc1ccc(O)cc1)C(N)=O)[C@@H](C)O)C(C)C)[C@@H](C)O [Peptide 6] (H-K([γGlu-γGlu-C20 diacid])CNTATCATQRLADFLRHSSPNFGAIPSSTNVGSDTY-NH2; disulfide 2-7)
